Measured values from US12054509B2, “Antimicrobial compounds, compositions, and uses thereof” (Lakewood Amedex, Inc., priority 2017, dated 2024).
≈ marks a conversion by molar mass, not a printed value.

Assays:
Assay type in all cases: cell-based
Candida Albicans = experiment: MIC against a single isolate (Example 26); details: single isolate, read-out: C. albicans MIC
Description: (§1) Bacterial strains evaluated in this study include Escherichia coli, Klebsiella spp, Serratia marcescens, Proteus mirabilis/vulgaris, Citrobacter spp, Providencia spp, Morganella morganii, Pseudomonas aeruginosa, Staphylococcus aureus (MRSA only), and Enterococcus faecalis. Nu-8 test solutions are adjusted to pH 3.5 with citric acid, and MIC is evaluated per the CLSI methods in Mueller-Hinton broth supplemented accordingly to facilitate growth of specific strains.
(§2) MIC was determined as per Example 9 using LAI-101, LAI-102, Nu-10, LAI-105, LAI-106, Nu-3, and Nu-8 against a single isolate of Escherichia coli. Pseudomonas aeruginosa, Staphylococcus aureus (MRSA only), and Candida Albicans. For all microbe species, the LAI-101, LAI-102, Nu-10, LAI-105, and LAI-106 all perform at least as well as, and in many experiments better than, Nu-8 and Nu-3, which are both already quite active compounds.

Escherichia coli = experiment: MIC against a single isolate (Example 26); details: single isolate, read-out: E. coli MIC
Description: as §1, §2

Pseudomonas aeruginosa = experiment: MIC against a single isolate (Example 26); details: single isolate, read-out: P. aeruginosa MIC
Description: as §1, §2

[1] = test system: Staphylococcus aureus (MRSA only); experiment: MIC against a single isolate (Example 26); details: single isolate, read-out: S. aureus MIC
Description: as §1, §2

E. coli ATCC 25922 = experiment: Bacterial cytological profiling (Example 6), E. coli;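 as to cell wall deformations: tested at 1 0.5 and 0.25 times MIC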;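 as to effect on cell envelope: tested at 1 0.5 and 0.25 times MIC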
Description: (§3) This bacterial cytological profiling (BCP) study uses methods and materials described previously by Nonejuie, P., Burkart, M., Poglianoa, K., Pogiano, J. (2013). Bacterial cytological profiling rapidly identifies the cellular pathways targeted by antibacterial molecules. Proc. Natl. Acad. Sci. U.S.A. 110(40):16169-16174. doi: 10.1073/pnas.1311066110.
(§4) Wild type strains of E. coli ATCC 25922 or P. aeruginosa K2732 are grown in rich media (unbuffered 2× Lysogeny broth [LB]) at 30 C to an OD600˜0.4. These cultures are then split and each sample treated with the appropriate concentration of Nu-8 in unbuffered or buffered LB (final mixture OD600˜0.1). Cells exposed without Nu-8 are buffered to pH 4 with phosphoric acid.
(§5) The BCP is performed in LB media buffered to pH 4. The minimum inhibitory concentration (MIC) is measured for Nu-3, Nu-4, Nu-5, and Nu-8 against each bacterial strain. As one of ordinary skill in the art understands, minimum inhibitory concentrations are the lowest concentration of an antimicrobial that will inhibit the visible growth of a microorganism after overnight incubation. […] Cellular viability is assayed at three time points (5 minutes and 4 and 24 h following the onset of treatment).
(§6) For imaging E. coli, treated cells are stained with 1 μg/Ml FM4-64, 2 μg/mL DAPI, and 0.5 μM SYTOXGreen (Molecular Probes/Invitrogen). P. aeruginosa samples are stained 0.5 μM SYTOX Green, 28 μg/mL DAPI, and 4.5 μg/mL FM 4-64. Cells are transferred to an agarose pad (20% LB, 1% agarose) for imaging as described in Pogliano, J., Osborne, N., Sharp, M. D., Abanes-De Mello, A., Perez, A., Sun, Y.-L. and Pogliano, K. (1999), A vital stain for studying membrane dynamics in bacteria: a novel mechanism controlling septation during Bacillus subtilis sporulation. Molecular Microbiology, 31: 1149-1159. doi:10.1046/j.1365-2958.1999.01255.x.

P. aeruginosa K2732 = experiment: Bacterial cytological profiling (Example 6), P. aeruginosa; details: BCP;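 also: tested at 1 0.5 and 0.25 times MIC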
Description: as §3, §4, §5, §6

[2] = test system: wild type E. coli (ATCC 25922); experiment: Bacterial cytological profiling at pH 4, 5.5, 7 (Example 8), E. coli
Description: as §3, with “investigation” for “study”
(§7) For viable cell counts, cells are grown to OD600≈0.4 and diluted 1:1 into buffered or unbuffered media containing various compound concentrations. Samples are then collected and serially diluted (1:10) on a 96 well plate. Five microliters from each well are spotted on LB plates, incubated at 30° C., and viable cells are counted the next day.
(§8) Samples are collected at 10, 30, 120, and 240 min of exposure for viable cell count and imaging. For imaging, E. coli and S. aureus 200 μL of treated cells per time point are stained with 0.8 μg/mL FM4-64, 1.5 μg/mL DAPI, and 0.4 μM SYTOXGreen (Molecular Probes/Invitrogen). P. aeruginosa samples are stained 0.4 μM SYTOX Green, 28 μg/mL DAN, and 1 μg/mL FM 4-64. Cells are transferred to an agarose pad (20% LB, 1% agarose) for imaging.
(§9) For Nu-3 and Nu-8 stocks (at pH 4, 5.5 and 7), stock concentration is 500 mg/mL. For pH 4, the stocks are prepared by dissolving Nu-3 in 25 mM citrate buffer and Nu-8 in 350 mM citric acid. For pH 5.5, the stocks are prepared by dissolving Nu-3 in 25 mM citric-phosphate and Nu-8 in 25 mM critic. For pH 7, the stocks are prepared by dissolving Nu-3 and Nu-8 in 25 mM Sorensen phosphate buffer. 2×LB (lysogeny broth) solutions are prepared with 50 mM citrate buffer for pH 4, 50 mM citrate-phosphate buffer for pH 5.5, and 50 mM Sorensen phosphate buffer for pH 7.

[3] = test system: wild type P. aeruginosa (PAO1; K2732); experiment: Bacterial cytological profiling at pH 4, 5.5, 7 (Example 8), P. aeruginosa; details: pH 5.5 and 7; 112.5 mg/mL
Description: as §3, with “investigation” for “study”
as §7, §8, §9

[4] = test system: methicillin susceptible S. aureus (ATCC 29213); experiment: Bacterial cytological profiling at pH 4, 5.5, 7 (Example 8), S. aureus
Description: as §3, with “investigation” for “study”
as §7, §8, §9

E. coli (ATCC 25922) = experiment: Time kill assay in saline at pH 3.5 (Example 27); details: for Log10 CFU/mL: pH 3.5
Description: Log10 5 CFU of E. coli (ATCC 25922) were suspended in saline. Additionally, a sample of the saline only was prepared as a vehicle control (V.C.). Solutions of Nu-3, Nu-8, and Nu-10 at varying concentrations were adjusted to pH 3.5 with citric acid and added to the E. coli suspensions. At each time point (0, 1, 2.5, 5, 10, and 20 minutes), the treated bacterial suspensions were plated and incubated for 24 hrs, and each plate was read to determine the CFU count.
Tables 12-14 provide the time kill assay data for Nu-3 (Table 12), Nu-8 (Table 13) and Nu-10 (Table 14) against E. coli.

Compound: CCCCOP(=O)(O)OC[C@H]1O[C@@H](n2cnc3c(N)ncnc32)[C@H](OC)[C@@H]1OP(=O)(O)OCCCC [LAI-106, ((2R,3R,4R,5R)-5-(6-amino-9H-purin-9-yl)-3-((butoxy(hydroxy)phosphoryl)oxy)-4-methoxytetrahydrofuran-2-yl)methyl butyl hydrogen phosphate]
- MIC (Candida Albicans): 25000 µg/mL
- MIC (Escherichia coli): 1000 µg/mL
- MIC (Pseudomonas aeruginosa): 5000 µg/mL
- MIC [1]: 5000 µg/mL

Compound: CCCCOP(=O)(O)OC[C@H]1O[C@@H](n2cc(C)c(=O)[nH]c2=O)C[C@@H]1OP(=O)(O)OCCCC [Nu-3, reference compound]
- effect on cell envelope (E. coli ATCC 25922; BCP): affect the cell envelope
- DNA condensation (E. coli ATCC 25922; higher treatment concentrations, buffered pH 4): causes DNA condensation
- cell wall deformations (E. coli ATCC 25922; unbuffered LB): cause cell wall deformations
- effect on cell envelope (P. aeruginosa K2732): affect the cell envelope
- cell viability (cell growth delay) ([2]; pH 4, 112.5 mg/mL, up to 240 min): 10^7 CFR/mL
- effect on cell permeability, viability and growth ([2]; pH 5.5 and 7): ineffective
- cell growth [3]: no effect on cell growth
- increase/change in cell permeability [3]: < 6%
- cell growth ([4]; pH 4, 125 mg/mL): slight reduction in cell growth
- cell permeability ([4]; pH 4, 125 mg/mL): < 10%
- cell permeability ([4]; pH 4, 250 mg/mL): < 10%
- cell growth ([4]; pH 5.5 and 7, 125 mg/mL and 250 mg/mL, up to 24 h): slightly reduce cell growth
- MIC (Candida Albicans): 25000 µg/mL (≈ 48.6 mM)
- MIC (Escherichia coli): 25000 µg/mL (≈ 48.6 mM)
- MIC (Pseudomonas aeruginosa): 25000 µg/mL (≈ 48.6 mM)
- MIC [1]: > 50000 µg/mL
- Log10 CFU/mL (E. coli (ATCC 25922); 2.5% solution, 0 min): 5.20 Log10 CFU/mL
- Log10 CFU/mL (E. coli (ATCC 25922); 2.5% solution, 1 min): 3.38 Log10 CFU/mL
- Log10 CFU/mL (E. coli (ATCC 25922); 2.5% solution, 2.5 min): 2.55 Log10 CFU/mL
- Log10 CFU/mL (E. coli (ATCC 25922); 2.5% solution, 5 min): 1.99 Log10 CFU/mL
- Log10 CFU/mL (E. coli (ATCC 25922); 2.5% solution, 10 min): 0.00 Log10 CFU/mL
- Log10 CFU/mL (E. coli (ATCC 25922); 2.5% solution, 20 min): 0.00 Log10 CFU/mL
- Log10 CFU/mL (E. coli (ATCC 25922); 5% solution, 0 min): 5.20 Log10 CFU/mL
- Log10 CFU/mL (E. coli (ATCC 25922); 5% solution, 1 min): 3.00 Log10 CFU/mL
- Log10 CFU/mL (E. coli (ATCC 25922); 5% solution, 2.5 min): 2.10 Log10 CFU/mL
- Log10 CFU/mL (E. coli (ATCC 25922); 5% solution, 5 min): 0.00 Log10 CFU/mL
- Log10 CFU/mL (E. coli (ATCC 25922); 5% solution, 10 min): 0.00 Log10 CFU/mL
- Log10 CFU/mL (E. coli (ATCC 25922); 5% solution, 20 min): 0.00 Log10 CFU/mL
- Log10 CFU/mL (E. coli (ATCC 25922); 10% solution, 0 min): 5.20 Log10 CFU/mL
- Log10 CFU/mL (E. coli (ATCC 25922); 10% solution, 1 min): 2.85 Log10 CFU/mL
- Log10 CFU/mL (E. coli (ATCC 25922); 10% solution, 2.5 min): 0.00 Log10 CFU/mL
- Log10 CFU/mL (E. coli (ATCC 25922); 10% solution, 5 min): 0.00 Log10 CFU/mL
- Log10 CFU/mL (E. coli (ATCC 25922); 10% solution, 10 min): 0.00 Log10 CFU/mL
- Log10 CFU/mL (E. coli (ATCC 25922); 10% solution, 20 min): 0.00 Log10 CFU/mL
- time to complete kill of the bacteria (E. coli (ATCC 25922); concentration of 10%): ≤ 2.5 min

Compound: CCCCOP(=O)(O)OC[C@H]1O[C@@H](n2ccc(N)nc2=O)[C@H](OC)[C@@H]1OP(=O)(O)OCCCC [Nu-10, ((2R,3R,4R,5R)-5-(4-amino-2-oxopyrimidin-1(2H)-yl)-3-((butoxy(hydroxy)phosphoryl)oxy)-4-methoxytetrahydrofuran-2-yl)methyl butyl hydrogen phosphate]
- MIC (Candida Albicans): 5000 µg/mL
- MIC (Escherichia coli): 1000 µg/mL
- MIC (Pseudomonas aeruginosa): 5000 µg/mL
- MIC [1]: 5000 µg/mL
- Log10 CFU/mL (E. coli (ATCC 25922); 0.1% solution, 0 min): 5.20 Log10 CFU/mL
- Log10 CFU/mL (E. coli (ATCC 25922); 0.1% solution, 1 min): 3.78 Log10 CFU/mL
- Log10 CFU/mL (E. coli (ATCC 25922); 0.1% solution, 2.5 min): 3.38 Log10 CFU/mL
- Log10 CFU/mL (E. coli (ATCC 25922); 0.1% solution, 5 min): 2.57 Log10 CFU/mL
- Log10 CFU/mL (E. coli (ATCC 25922); 0.1% solution, 10 min): 0.00 Log10 CFU/mL
- Log10 CFU/mL (E. coli (ATCC 25922); 0.1% solution, 20 min): 0.00 Log10 CFU/mL
- Log10 CFU/mL (E. coli (ATCC 25922); 0.5% solution, 0 min): 5.20 Log10 CFU/mL
- Log10 CFU/mL (E. coli (ATCC 25922); 0.5% solution, 1 min): 2.51 Log10 CFU/mL
- Log10 CFU/mL (E. coli (ATCC 25922); 0.5% solution, 2.5 min): 0.00 Log10 CFU/mL
- Log10 CFU/mL (E. coli (ATCC 25922); 0.5% solution, 5 min): 0.00 Log10 CFU/mL
- Log10 CFU/mL (E. coli (ATCC 25922); 0.5% solution, 10 min): 0.00 Log10 CFU/mL
- Log10 CFU/mL (E. coli (ATCC 25922); 0.5% solution, 20 min): 0.00 Log10 CFU/mL
- Log10 CFU/mL (E. coli (ATCC 25922); 2.5% solution, 0 min): 5.20 Log10 CFU/mL
- Log10 CFU/mL (E. coli (ATCC 25922); 2.5% solution, 1 min): 0.00 Log10 CFU/mL
- Log10 CFU/mL (E. coli (ATCC 25922); 2.5% solution, 2.5 min): 0.00 Log10 CFU/mL
- Log10 CFU/mL (E. coli (ATCC 25922); 2.5% solution, 5 min): 0.00 Log10 CFU/mL
- Log10 CFU/mL (E. coli (ATCC 25922); 2.5% solution, 10 min): 0.00 Log10 CFU/mL
- Log10 CFU/mL (E. coli (ATCC 25922); 2.5% solution, 20 min): 0.00 Log10 CFU/mL
- time to complete kill of the bacteria (E. coli (ATCC 25922); concentration of 2.5%): ≤ 1 min
